From patent US10202388B2, “Fused-ring compounds, pharmaceutical composition and uses thereof” (SHANGHAI DE NOVO PHARMATECH CO., LTD., priority 2015, dated 2019)

Legend:
[1] = biological target: Human recombinant IDO1 (Homo sapiens (Human), UniProt P14902); assay: IDO1 enzymatic assay (UV absorption at 321 nm); assay type: biochemical; conditions: human recombinant IDO1, 80 min incubation, room temperature; read-out: hIDO1 IC50
Description: The detailed experimental method is as follow:
The compounds described in this disclosure were dissolved in 10% DMSO to predefined concentration. All of the reactions were conducted at room temperature in this disclosure. Human recombinant IDO1 (BPS Bioscience) was added so that its concentration was 200 nm in the reaction buffer solution (200 μL). […] 10 μL test compound solution was added into the above reaction solution (200 μL), so that the final concentration of DMSO in all reaction wells was 0.5%. % concentration was volume %. After 80 min incubation of the reaction solution, the UV absorbance was measured using TECAN Infinite M1000 plate reader. For the negative control (blank), 10 μl of the assay buffer was added instead of the IDO1
All reagents (excluding human recombinant IDO1) were purchased from Sigma Aldrich, MO, USA.
The percent activity in the presence of each compound was calculated according to the following equation: % activity=[(A−Ab)/(At−Ab)]×100, where A=the absorption signal in the presence of the compound, Ab=the absorption signal of blank, At=the absorption signal in the absence of the compound. […] The IC50 was calculated using non-linear regression in Graph Pad Prism® 4.

[2] = biological target: HeLa cell IDO1 (Homo sapiens (Human), UniProt P14902); assay: HeLa cell based IDO1 inhibition assay (kynurenine readout, IFN-γ induced); conditions: HeLa cells
Description: HeLa cell line was purchased from ATCC, cultured in MEM/EBSS medium supplemented with 10% FBS, penn-step (100,000 U/L), non-essential amino acid (0.1 Mm), sodium pyruvate (1.0 Mm). Cells were cultured at 37° C., 95% humidity and 5% CO2. […] The detailed experimental method is as follow:
25,000 HeLa cells were placed on 96-well plates. Each well contained 100 μl culture medium, subsequently IFN-γ and test compounds at specific concentrations (concentration range between 10 μM and 1 Nm, so that the final volume of culture medium was 200 μL) were added and IFN-γ was used to induce IDO1 expression. After incubation, 140 μL supernatant was transferred to 96-well plates. After adding 6.1 N TCA (10 μL), the plates were continuously incubated at 50° C. for 30 min, to hydrolyze N-formylkynurenine produced by IDO to kynurenine. The reaction solution was then centrifuged at 2500 rpm for 10 min to remove precipitate. 100 μL/well supernatant was then transferred to another 96-well plate. 100 μL of 2% (w/v) 4-N,N-dimethyl aminobenzaldehyde acetic acid solution was added and incubated at room temperature for 10 min. The yellow color derived from kynurenine was recorded by measuring absorbance at 480 nm using a microplate reader (TECAN Infinite M1000 Pro).

[3] = biological target: HeLa cell based IDO1 (Homo sapiens (Human), UniProt P14902); assay: Three-point IDO1 cellular assay (HeLa, 10, 100 and 1000 nM); conditions: HeLa cells, 100 ng/mL IFN-γ, 18 hours; for inhibition at 1 µM: at 1000 nM
Description: To perform the 3-point HeLa cell based IDO1 assay, HeLa cells were seeded at 25,000 cells per well into 96-well microplate in 100 μL of growth medium. Cells were incubated at 37° C. and 5% CO2 overnight. The next day 100 μL per well of diluted inhibitor in growth medium at 10, 100 and 1000 nM, respectively, was added at a final concentration of 100 ng/ML human IFN-γ. Cells were incubated at 37° C. in a CO2 incubator for 18 hours. […] The plate was incubated at 50° C. for 30 min to hydrolyze N-formylkynurenine produced by IDO1 to kynurenine. The plate was then centrifuged at 2500 rpm for 10 min to remove sediments. 100 μl of supernatant per well was transferred to another 96-well plate and mixed with 100 μL of 2% (w/v) 4-(Dimethylamino) benzaldehyde in acetic acid. The plate was incubated at room temperature for 10 minutes, the yellow color derived from kynurenine was recorded by measuring absorbance at 480 nm using a microplate reader (TECAN Infinite M1000 Pro). Cell based assays were performed in triplicate at each concentration. The absorbance data were analyzed using the computer software, Graphpad Prism. In the absence of the compound and presence of 100 ng/ML IFN-γ, the absorbance (At) in each data set was defined as 100%. The absorbance of medium blank (Ab) in each data set was defined as 0%. The percent absorbance in the presence of each compound was calculated according to the following equation: % Absorbance=(A−Ab)/(At−Ab), where A=the absorbance in the presence of the compound and IFN-γ, Ab=the absorbance of medium blank, and At=the absorbance in the absence of the compounds and presence of IFN-γ. The values of % absorbance versus the compound concentrations were then determined.

Sequence of Human recombinant IDO1 (P14902 whole entry): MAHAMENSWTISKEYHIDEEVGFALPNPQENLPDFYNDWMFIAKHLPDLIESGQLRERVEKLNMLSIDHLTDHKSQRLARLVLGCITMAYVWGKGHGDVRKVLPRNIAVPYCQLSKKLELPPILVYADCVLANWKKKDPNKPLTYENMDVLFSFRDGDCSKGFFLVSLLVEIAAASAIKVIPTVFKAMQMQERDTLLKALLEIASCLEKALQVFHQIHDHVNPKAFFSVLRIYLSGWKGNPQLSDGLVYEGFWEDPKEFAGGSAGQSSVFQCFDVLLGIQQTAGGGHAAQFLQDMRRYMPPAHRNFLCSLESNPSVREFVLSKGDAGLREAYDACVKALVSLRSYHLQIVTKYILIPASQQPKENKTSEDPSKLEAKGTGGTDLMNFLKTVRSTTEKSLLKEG
Sequence of HeLa cell IDO1 (P14902 whole entry): as above
Sequence of HeLa cell based IDO1 (P14902 whole entry): as above

Row | Structure (SMILES) | IC50 [2] | other results
1 | O=C(C[C@H]1c2ccccc2-c2cncn21)C12CC3CC(CC(C3)C1)C2 (single isomer, unassigned) [Compound 1-1] |  | IC50 [1]: 1000 to 10000 nM
2 | O=C(C[C@@H]1c2ccccc2-c2cncn21)C12CC3CC(CC(C3)C1)C2 (single isomer, unassigned) [Compound 1-4] |  | IC50 [1]: 1000 to 10000 nM
3 | O=S(=O)(NC1C2CC3CC1CC(C(O)CC1c4c(F)cccc4-c4cncn41)(C3)C2)c1ccccc1 (single isomer, unassigned) [Compound 47A] | < 100 nM | 
4 | O=S(=O)(NC1C2CC3CC1CC(C(O)CC1c4c(F)cccc4-c4cncn41)(C3)C2)c1ccccc1 (single isomer, unassigned) [Compound 47B] | < 100 nM | 
5 | O=C(Nc1ccccc1)NC1C2CC3CC1CC(C(O)CC1c4c(F)cccc4-c4cncn41)(C3)C2 (single isomer, unassigned) [Compound 55A] | < 100 nM | 
6 | O=C(Nc1ccccc1)NC1C2CC3CC1CC(C(O)CC1c4c(F)cccc4-c4cncn41)(C3)C2 (single isomer, unassigned) [Compound 55B] | 100 to 500 nM | 
7 | O=S(=O)(CC1CCC1)NC1C2CC3CC1CC(C(O)CC1c4c(F)cccc4-c4cncn41)(C3)C2 (single isomer, unassigned) [Compound 67B] | < 100 nM | 
8 | N#Cc1ccc(S(=O)(=O)NC2C3CC4CC2CC(C(O)CC2c5c(F)cccc5-c5cncn52)(C4)C3)cc1 (single isomer, unassigned) [Compound 69A] | < 100 nM | 
9 | N#Cc1ccc(S(=O)(=O)NC2C3CC4CC2CC(C(O)CC2c5c(F)cccc5-c5cncn52)(C4)C3)cc1 (single isomer, unassigned) [Compound 69B] | 500 to 1000 nM | 
10 | OC(CC1c2ccccc2-c2cncn21)C12CC3CC(C1)C(Nc1nc4ccccc4s1)C(C3)C2 (single isomer, unassigned) [Compound 125A] | < 100 nM | 
11 | OC(CC1c2ccccc2-c2cncn21)C12CC3CC(C1)C(Nc1nc4ccccc4s1)C(C3)C2 (single isomer, unassigned) [Compound 125B] | < 100 nM | 
12 | N#Cc1ccc(S(=O)(=O)NC23CC4CC(C2)C(C(O)CC2c5ccccc5-c5cncn52)C(C4)C3)cc1 (single isomer, unassigned) [Compound 165A] | < 100 nM | 
13 | N#Cc1ccc(S(=O)(=O)NC23CC4CC(C2)C(C(O)CC2c5ccccc5-c5cncn52)C(C4)C3)cc1 (single isomer, unassigned) [Compound 165B] | 500 to 1000 nM | 
14 | CS(=O)(=O)NC12CC3CC(C1)C(C(O)CC1c4ccccc4-c4cncn41)C(C3)C2 (single isomer, unassigned) [Compound 168A] | < 100 nM | 
15 | CS(=O)(=O)NC12CC3CC(C1)C(C(O)CC1c4ccccc4-c4cncn41)C(C3)C2 (single isomer, unassigned) [Compound 168B] | 1000 to 10000 nM | 
16 | OC1C2CC3CC1CC(C(O)CC1c4ccccc4-c4cncn41)(C3)C2 (stereo not shown) [Compound 10A-3] |  | IC50 [1]: 1000 to 10000 nM
17 | OC1C2CC3CC1CC([C@@H](O)CC1c4ccccc4-c4cncn41)(C3)C2 (stereo partly shown) [Compound 10B] |  | IC50 [1]: 100 to 500 nM
18 | CC1(O)C2CC3CC1CC(C(O)CC1c4ccccc4-c4cncn41)(C3)C2 (stereo not shown) [Compound 11A] | < 100 nM | 
19 | CC1(O)C2CC3CC1CC([C@@H](O)CC1c4ccccc4-c4cncn41)(C3)C2 (stereo partly shown) [Compound 14A-1] |  | IC50 [1]: 1000 to 10000 nM
20 | OC1C2CC3CC1CC([C@H](O)CC1c4c(F)cccc4-c4cncn41)(C3)C2 (stereo partly shown) [Compound 23A-2] |  | IC50 [1]: 1000 to 10000 nM
21 | OC1C2CC3CC1CC([C@@H](O)CC1c4c(F)cccc4-c4cncn41)(C3)C2 (stereo partly shown) [Compound 23A-4] |  | IC50 [1]: 1000 to 10000 nM
22 | OC1C2CC3CC1CC([C@@H](O)CC1c4c(F)cccc4-c4cncn41)(C3)C2 (stereo partly shown) [Compound 26A-2] |  | IC50 [1]: 1000 to 10000 nM
23 | OC1C2CC3CC1CC([C@@H](O)CC1c4c(F)cccc4-c4cncn41)(C3)C2 (stereo partly shown) [Compound 26B] |  | IC50 [1]: 100 to 500 nM

Row | Structure (SMILES) | IC50 [2] | other results
24 | OC(Cn1c2ccccc2n2cncc12)C12CC3CC(CC(C3)C1)C2 (stereo not shown) [Compound 40] |  | IC50 [1]: 1000 to 10000 nM
25 | CCS(=O)(=O)NC1C2CC3CC1CC(C(O)CC1c4c(F)cccc4-c4cncn41)(C3)C2 (stereo not shown) [Compound 66] | < 100 nM | 
26 | O=S(=O)(Cc1ccc(F)cc1)NC1C2CC3CC1CC(C(O)CC1c4c(F)cccc4-c4cncn41)(C3)C2 (stereo not shown) [Compound 71] | < 100 nM | 
27 | O=S(=O)(NC1C2CC3CC1CC(C(O)CC1c4c(F)cccc4-c4cncn41)(C3)C2)C1CC1 (stereo not shown) [Compound 81A] | < 100 nM | 
28 | CS(=O)(=O)Nc1ccc(S(=O)(=O)NC2C3CC4CC2CC(C(O)CC2c5c(F)cccc5-c5cncn52)(C4)C3)cc1 (stereo not shown) [Compound 87] | 500 to 1000 nM | 
29 | O=C(Nc1ccc(F)cc1)NC1C2CC3CC1CC(C(O)CC1c4c(F)cccc4-c4cncn41)(C3)C2 (stereo not shown) [Compound 93A] | < 100 nM | 
30 | Cc1ccc(NC(=O)NC2C3CC4CC2CC(C(O)CC2c5c(F)cccc5-c5cncn52)(C4)C3)cc1 (stereo not shown) [Compound 97] | < 100 nM | 
31 | N#Cc1ccc(NC(=O)NC2C3CC4CC2CC(C(O)CC2c5c(F)cccc5-c5cncn52)(C4)C3)cc1 (stereo not shown) [Compound 100] | < 100 nM | 
32 | CS(=O)(=O)c1ccc(NC(=O)NC2C3CC4CC2CC(C(O)CC2c5c(F)cccc5-c5cncn52)(C4)C3)cc1 (stereo not shown) [Compound 101] | 100 to 500 nM | 
33 | CC(=O)Nc1ccc(NC(=O)NC2C3CC4CC2CC(C(O)CC2c5ccccc5-c5cncn52)(C4)C3)cc1 (stereo not shown) [Compound 102] | 1000 to 10000 nM | 
34 | O=C(Nc1ccc(F)c(F)c1)NC1C2CC3CC1CC(C(O)CC1c4c(F)cccc4-c4cncn41)(C3)C2 (stereo not shown) [Compound 108A] | < 100 nM | 
35 | OC(CC1c2ccccc2-c2cncn21)C12CC3CC(C1)C(Nc1nc4ccccc4o1)C(C3)C2 (stereo not shown) [Compound 123] | < 100 nM | 
36 | OC(CC1c2c(F)cccc2-c2cncn21)C12CC3CC(C1)C(Nc1nc4ccccc4o1)C(C3)C2 (stereo not shown) [Compound 124A] | < 100 nM | 
37 | O=C(Nc1ccccc1)NC12CC3CC(C1)C(C(O)CC1c4ccccc4-c4cncn41)C(C3)C2 (stereo not shown) [Compound 162A] | 100 to 500 nM | 
38 | CCS(=O)(=O)NC12CC3CC(C1)C(C(O)CC1c4ccccc4-c4cncn41)C(C3)C2 (stereo not shown) [Compound 167A] | 100 to 500 nM | 
39 | Cc1ccc(CC(=O)NC23CC4CC(C2)C(C(O)CC2c5c(F)cccc5-c5cncn52)C(C4)C3)cc1 (stereo not shown) [Compound 193A] |  | inhibition at 0.1 µM ([3]; at 100 nM): > 50%
40 | CC(=O)Nc1ccc(S(=O)(=O)NC23CC4CC(C2)C(C(O)CC2c5ccccc5-c5cncn52)C(C4)C3)cc1 (stereo not shown) [Compound 201A] |  | inhibition at 1 µM [3]: > 50%
41 | O=S(=O)(Cc1ccccc1)N1C2CC3CC1CC(C(O)CC1c4c(F)cccc4-c4cncn41)(C3)C2 (stereo not shown) [Compound 205] |  | inhibition at 1 µM [3]: > 50%
42 | O=S(=O)(c1ccccc1)N1C2CC3CC1CC(C(O)CC1c4c(F)cccc4-c4cncn41)(C3)C2 (stereo not shown) [Compound 206] |  | inhibition at 1 µM [3]: > 50%
43 | O=C(Cc1ccc(F)cc1)N1C2CC3CC1CC(C(O)CC1c4c(F)cccc4-c4cncn41)(C3)C2 (stereo not shown) [Compound 207] |  | inhibition at 1 µM [3]: > 50%
44 | O=C(Nc1ccccc1)N1C2CC3CC1CC(C(O)CC1c4c(F)cccc4-c4cncn41)(C3)C2 (stereo not shown) [Compound 208] | < 100 nM | 
45 | OC(CC1c2c(F)cccc2-c2cncn21)C12CC3CC(C1)N(c1ncc(-c4ccccc4)o1)C(C3)C2 (stereo not shown) [Compound 210] |  | inhibition at 1 µM [3]: > 50%
46 | OC(CC1c2cccnc2-c2cncn21)C1CCCCC1 (stereo not shown) [compound 2] |  | IC50 [1]: 1000 to 10000 nM
